Test results from PubChem BioAssay AID1996.
In brackets after ≈: the same amount, converted by molar mass.

Settings: buffer; pH 7.4; 200.0 µM
Molecule `Cc1cnc(NCCc2ccccc2)s1` has a solubility kinetic of 23 µg/mL (≈ 105 µM). In the case of `O=C(c1ccccn1)N1CCN(c2cccc(C(F)(F)F)c2)CC1`, the solubility kinetic is reported as > 50.3 µg/mL. In the case of `COc1cccc2c1CCc1c-2nc2ccccc2c1C(=O)O`, the solubility kinetic is reported as > 45.8 µg/mL. With `COc1cccc(CNc2cc(C)ccn2)c1O` the solubility kinetic was > 36.6 µg/mL. In the case of `O=C(CSc1ccccn1)Nc1nonc1[N+](=O)[O-]`, the solubility kinetic is reported as > 42.2 µg/mL. Molecule `C=C(c1ccccc1)c1ccc(N(C)C)cc1` has a solubility kinetic of 2.3 µg/mL (≈ 10.3 µM). For `COc1ccc(C(O)c2ncc(C(F)(F)F)cc2Cl)cc1` (stereo unspecified), the solubility kinetic was > 47.7 µg/mL. With `COc1c(S(=O)(=O)N2CCN(C)CC2)ccc(Cl)c1Cl` the solubility kinetic was 45.6 µg/mL (≈ 134 µM). For `O=C(c1ccc(NS(=O)(=O)c2cccc(F)c2)cc1)N1CCCC1`, the solubility kinetic was 51.2 µg/mL (≈ 147 µM). Work on `O=C(Cc1ccc(Br)cc1)NCCc1ccc(F)cc1` yielded a solubility kinetic of 14.9 µg/mL (≈ 44.3 µM). With `CC(C)S(=O)(=O)c1csc(NC(=O)Nc2cc(Cl)ccc2Cl)c1Cl` the solubility kinetic was < 0.5 µg/mL. For `O=C(Nc1ccc(F)cc1)Nc1cccnc1`, the solubility kinetic was > 34.7 µg/mL. With `O=C(CC12CC3CC(CC(C3)C1)C2)Nc1c(F)cccc1F` the solubility kinetic was < 0.7 µg/mL. With `Cc1cccc(C)c1OCC(=O)Nc1c(C)nn(C)c1C` the solubility kinetic was > 43.1 µg/mL. For `O=C(CN1C(=O)c2cccc([N+](=O)[O-])c2C1=O)NCc1ccccc1`, the solubility kinetic was > 50.9 µg/mL. With `O=C(Cc1ccccc1)Nc1ccc(C(=O)NCc2ccccc2)cc1` the solubility kinetic was < 0.4 µg/mL. For `O=C(O)c1ccc2c(c1)C(=O)N(c1ccc([N+](=O)[O-])cn1)C2=O`, the solubility kinetic was > 47 µg/mL. For `Cn1c(O)c(C=NCCN2CCOCC2)c(=O)n(C)c1=S`, the solubility kinetic was > 46.9 µg/mL. `COC(=O)c1ccc(Nc2c([N+](=O)[O-])c(=O)oc3ccccc23)cc1` showed a solubility kinetic of 4.1 µg/mL (≈ 12 µM). In the case of `COc1cccc(CNC(=O)CC(NC(C)=O)c2ccccc2)c1` (stereo unspecified), the solubility kinetic is reported as > 49 µg/mL. For `Cc1oc(-c2cccc(C(F)(F)F)c2)nc1CN1CCC[C@H]1CO`, the solubility kinetic was > 51.1 µg/mL. With `CN(C)c1cccc(C(=O)OCC(=O)N(C)c2ccccc2)c1` the solubility kinetic was > 46.9 µg/mL. In the case of `O=C(NCCc1ccc(Cl)cc1)c1ccc2nccnc2c1`, the solubility kinetic is reported as 4.8 µg/mL (≈ 15.4 µM). With `Cc1ccccc1C(=O)O/N=C(\N)c1ccccc1` the solubility kinetic was 34.3 µg/mL (≈ 135 µM). For `O=[N+]([O-])c1cnc2ccccn12`, the solubility kinetic was 22.1 µg/mL (≈ 135 µM). With `Cc1csc(=O)n1CC(=O)Nc1ccc(S(C)(=O)=O)cc1` the solubility kinetic was > 49 µg/mL. In the case of `O=C1Nc2cc(Br)ccc2C1(O)c1ccccc1O` (stereo unspecified), the solubility kinetic is reported as > 48 µg/mL. Work on `Cc1ccc(C(C)NC(=O)c2cccnc2)cc1` (stereo unspecified) yielded a solubility kinetic of 33.5 µg/mL (≈ 139 µM). In the case of `CCc1cc2cc(C)cc(C)c2nc1Cl`, the solubility kinetic is reported as < 0.5 µg/mL. In the case of `CC(C)C(NS(=O)(=O)c1ccccc1)C(=O)N1CCCC1` (stereo unspecified), the solubility kinetic is reported as > 46.6 µg/mL. Work on `CC(=O)c1ccc(NC(=O)/C(C#N)=C/c2ccncc2)cc1` yielded a solubility kinetic of 43.2 µg/mL (≈ 148 µM). For `CC1CCN(C(=O)NC(=O)c2ccc(Cl)cc2)CC1`, the solubility kinetic was > 42.1 µg/mL. With `CN(C)/C=C(\C#N)C(=O)Nc1ccc(F)c(Cl)c1` the solubility kinetic was 2 µg/mL (≈ 7.47 µM). Work on `Cc1nc(N2CCOCC2)[nH]c(=O)c1C(O)C(Cl)(Cl)Cl` (stereo unspecified) yielded a solubility kinetic of 47.1 µg/mL (≈ 137 µM). Molecule `O=C(CSc1ccccc1)NCc1ccccc1` has a solubility kinetic of 22.6 µg/mL (≈ 87.8 µM). For `Cc1cc(C(=O)Nc2ccon2)c(C)o1`, the solubility kinetic was > 30.9 µg/mL. For `O=C(c1cccc(C(F)(F)F)c1)N1CCc2c([nH]c3ccccc23)C1C(F)(F)F` (stereo unspecified), the solubility kinetic was < 0.4 µg/mL. `CCN(c1ccccc1)S(=O)(=O)c1ccc(Cl)nc1` gave a solubility kinetic of 32 µg/mL (≈ 108 µM). In the case of `O=C(Nc1cccc(O)c1)c1cccc(C(=O)Nc2cccc(O)c2)c1`, the solubility kinetic is reported as 1.8 µg/mL (≈ 5.17 µM). In the case of `CNC(=O)c1c(NC(=O)c2ccco2)sc(C)c1C`, the solubility kinetic is reported as 11.6 µg/mL (≈ 41.7 µM). `COC(=O)C(C)NC(=O)C12CC3CC(C1)CC(c1ccc(C)cc1)(C3)C2` (stereo unspecified) gave a solubility kinetic of 30.6 µg/mL (≈ 86.1 µM). In the case of `Cc1ccnc(NC(=O)c2ccc3c(c2)NC(=O)C(C)S3)c1` (stereo unspecified), the solubility kinetic is reported as 6.6 µg/mL (≈ 21.1 µM). For `Cc1csc(SCC(=O)Nc2nncs2)n1`, the solubility kinetic was > 40.9 µg/mL. For `CCc1ccccc1NC(=O)CCN1C(=O)C2C3CCC(C3)C2C1=O` (stereo unspecified), the solubility kinetic was 43 µg/mL (≈ 126 µM). With `CCCNC(=O)Cc1c(C)oc2ccccc12` the solubility kinetic was > 34.7 µg/mL. In the case of `CN(C)/C=C/C(=O)c1cc(N2CCOCC2)ccc1[N+](=O)[O-]`, the solubility kinetic is reported as > 45.8 µg/mL. Molecule `O=C(N/C(=C/c1cccs1)C(=O)N1CCCC1)c1ccccc1` has a solubility kinetic of 46.5 µg/mL (≈ 142 µM). In the case of `COc1ccccc1CNS(=O)(=O)c1cccs1`, the solubility kinetic is reported as > 42.5 µg/mL. For `O=C(CNC(=O)c1ccco1)NCc1nc2ccccc2[nH]1`, the solubility kinetic was > 44.7 µg/mL. In the case of `Cc1cccc(C(=O)NC(=S)NC(C)c2ccccc2)c1` (stereo unspecified), the solubility kinetic is reported as 1 µg/mL (≈ 3.35 µM). `NC(=S)Nc1nc2ccccc2s1` showed a solubility kinetic of 25.8 µg/mL (≈ 123 µM). With `Nc1c(Cl)cc(Cl)cc1C(=O)OCC(=O)N1CCOCC1` the solubility kinetic was > 50 µg/mL. With `Oc1ccccc1Oc1ncc(Br)c(Cl)n1` the solubility kinetic was > 45.2 µg/mL. For `COCCCNC(=O)C1CCN(c2ccc(N3CCOCC3)nn2)CC1`, the solubility kinetic was > 54.5 µg/mL. In the case of `COc1ccccc1OC(C)C(=O)Nc1ccc2c(c1)OCCO2` (stereo unspecified), the solubility kinetic is reported as > 49.4 µg/mL. For `Cc1c(NS(C)(=O)=O)cccc1-c1nc2cccnc2s1`, the solubility kinetic was 42.9 µg/mL (≈ 134 µM). In the case of `NS(=O)(=O)c1cc(C(=O)OCC(=O)Nc2ccc3c(c2)OCO3)ccc1Cl`, the solubility kinetic is reported as 16.9 µg/mL (≈ 40.9 µM). `COc1cc(/C=C/C(=O)Nc2cccnc2)cc(OC)c1OC` gave a solubility kinetic of 40.9 µg/mL (≈ 130 µM). For `Cn1nccc1NC(=O)c1nccnc1C(=O)O`, the solubility kinetic was > 37.1 µg/mL. Work on `O=c1oc2ccccc2n1Cc1ccccc1F` yielded a solubility kinetic of 4.2 µg/mL (≈ 17.3 µM). `CC(=O)c1cccc(NC(=O)CCCSc2ccccc2)c1` showed a solubility kinetic of 2.9 µg/mL (≈ 9.25 µM).
